In ChEMBL document CHEMBL2440076, “New triarylpyrazoles as broad-spectrum anticancer agents: design, synthesis, and biological evaluation” (Eur J Med Chem, 2013):

What was measured:
NCI-H226 = assay: Growth inhibition of human NCI-H226 cells after 48 hrs by sulforhodamine B assay; assay type: functional; conditions: NCI-H226, 48 h
A498 = assay: Growth inhibition of human A498 cells assessed as cell growth at 10 uM after 48 hrs by sulforhodamine B assay; assay type: functional; conditions: A498, 48 h, read-out: Activity
SF-539 = assay: Growth inhibition of human SF539 cells assessed as cell growth at 10 uM after 48 hrs by sulforhodamine B assay; assay type: functional; conditions: SF-539, 48 h, read-out: Activity
RPMI-8226 = assay: Growth inhibition of human RPMI8226 cells assessed as cell growth at 10 uM after 48 hrs by sulforhodamine B assay; assay type: functional; conditions: RPMI-8226, 48 h, read-out: Activity
[1] = Growth inhibition of human HCC2998 cells assessed as cell growth at 10 uM after 48 hrs by sulforhodamine B assay; assay type: functional; conditions: HCC 2998, 48 h, read-out: Activity
SK-MEL-28 = assay: Growth inhibition of human SK-MEL-28 cells assessed as cell growth at 10 uM after 48 hrs by sulforhodamine B assay; assay type: functional; conditions: SK-MEL-28, 48 h, read-out: Activity
T47D [2] = assay: Growth inhibition of human T47D cells assessed as cell growth at 10 uM after 48 hrs by sulforhodamine B assay; assay type: functional; conditions: read-out: Activity
MOLT-4 [3] = assay: Growth inhibition of human MOLT4 cells assessed as cell growth at 10 uM after 48 hrs by sulforhodamine B assay; assay type: functional; conditions: MOLT-4, 48 h, read-out: Activity
MDA-MB-231 [4] = assay: Growth inhibition of human MDA-MB-231 cells after 48 hrs by sulforhodamine B assay; assay type: functional; conditions: MDA-MB-231, 48 h
HOP-62 = assay: Growth inhibition of human HOP62 cells after 48 hrs by sulforhodamine B assay; assay type: functional; conditions: HOP-62, 48 h
A549 = assay: Growth inhibition of human A549/ATCC cells assessed as cell growth at 10 uM after 48 hrs by sulforhodamine B assay; assay type: functional; conditions: A549, 48 h, read-out: Activity
PC-3 = assay: Growth inhibition of human PC3 cells after 48 hrs by sulforhodamine B assay; assay type: functional, cell-based; conditions: PC-3, 48 h
HCT-15 [5] = assay: Growth inhibition of human HCT15 cells assessed as cell growth at 10 uM after 48 hrs by sulforhodamine B assay; assay type: functional; conditions: HCT-15, 48 h, read-out: Activity
HOP-92 = assay: Growth inhibition of human HOP92 cells assessed as cell growth at 10 uM after 48 hrs by sulforhodamine B assay; assay type: functional; conditions: HOP-92, 48 h, read-out: Activity
SF-295 = assay: Growth inhibition of human SF295 cells after 48 hrs by sulforhodamine B assay; assay type: functional, cell-based; conditions: SF-295, 48 h
MDA-MB-468 = assay: Growth inhibition of human MDA-MB-468 cells assessed as cell growth at 10 uM after 48 hrs by sulforhodamine B assay; assay type: functional; conditions: MDA-MB-468, 48 h, read-out: Activity
HCT-116 = assay: Growth inhibition of human HCT116 cells after 48 hrs by sulforhodamine B assay; assay type: functional; conditions: HCT-116, 48 h
HL-60(TB) = assay: Growth inhibition of human HL-60(TB) cells assessed as cell growth at 10 uM after 48 hrs by sulforhodamine B assay; assay type: functional; conditions: HL-60, 48 h, read-out: Activity
MDA-MB-435 [6] = assay: Growth inhibition of human MDA-MB-435 cells after 48 hrs by sulforhodamine B assay; assay type: functional, cell-based; conditions: MDA-MB-435, 48 h
Malme-3M = assay: Growth inhibition of human MALME-3M cells after 48 hrs by sulforhodamine B assay; assay type: functional
SW-620 = assay: Growth inhibition of human SW620 cells assessed as cell growth at 10 uM after 48 hrs by sulforhodamine B assay; assay type: functional; conditions: SW-620, 48 h, read-out: Activity
MOLT-4 [7] = assay: Growth inhibition of human MOLT4 cells after 48 hrs by sulforhodamine B assay; assay type: functional; conditions: MOLT-4, 48 h
MDA-MB-435 [8] = assay: Growth inhibition of human MDA-MB-435 cells assessed as cell growth at 10 uM after 48 hrs by sulforhodamine B assay; assay type: functional; conditions: MDA-MB-435, 48 h, read-out: Activity
SN12C = assay: Growth inhibition of human SN12C cells after 48 hrs by sulforhodamine B assay; assay type: functional
[9] = Growth inhibition of human NCI-ADR-RES cells after 48 hrs by sulforhodamine B assay; assay type: functional
[10] = Growth inhibition of human Hs 578T cells after 48 hrs by sulforhodamine B assay; assay type: functional
HCT-15 [11] = assay: Growth inhibition of human HCT15 cells after 48 hrs by sulforhodamine B assay; assay type: functional; conditions: HCT-15, 48 h
[12] = Growth inhibition of human NCI-ADR-RES cells assessed as cell growth at 10 uM after 48 hrs by sulforhodamine B assay; assay type: functional; conditions: read-out: Activity
CAKI-1 = assay: Growth inhibition of human CAKI-1 cells after 48 hrs by sulforhodamine B assay; assay type: functional; conditions: CAKI-1, 48 h
TK-10 [13] = assay: Growth inhibition of human TK10 cells assessed as cell growth at 10 uM after 48 hrs by sulforhodamine B assay; assay type: functional; conditions: TK-10, 48 h, read-out: Activity
MDA-MB-231 [14] = assay: Growth inhibition of human MDA-MB-231 cells assessed as cell growth at 10 uM after 48 hrs by sulforhodamine B assay; assay type: functional; conditions: MDA-MB-231, 48 h, read-out: Activity
TK-10 [15] = assay: Growth inhibition of human TK10 cells after 48 hrs by sulforhodamine B assay; assay type: functional; conditions: TK-10, 48 h
COLO 205 = assay: Growth inhibition of human COLO205 cells after 48 hrs by sulforhodamine B assay; assay type: functional; conditions: COLO 205, 48 h
T47D [16] = assay: Growth inhibition of human T47D cells after 48 hrs by sulforhodamine B assay; assay type: functional
[17] = read-out: LC50 (the source's name)

COc1cc(-c2nn(-c3cccc(NC(=O)Nc4ccc(Cl)c(Cl)c4)c3)cc2-c2ccncc2)ccc1Cl
GI50 (NCI-H226): 1.35 µM | TGI (NCI-H226): > 50 µM | CC50 (NCI-H226; [17]): > 50 µM | growth at 10 µM (A498): -6.82% | growth at 10 µM (SF-539): 12.3% | growth at 10 µM (RPMI-8226): -11.6% | growth at 10 µM [1]: 2.84% | growth at 10 µM (SK-MEL-28): 4.96% | growth at 10 µM (T47D [2]): 2.98% | growth at 10 µM (MOLT-4 [3]): -11.1% | GI50 (MDA-MB-231 [4]): 0.698 µM | LC50 (MDA-MB-231 [4]): 12.9 µM | TGI (MDA-MB-231 [4]): 1.92 µM | GI50 (HOP-62): 1.44 µM | TGI (HOP-62): 4.9 µM | CC50 (HOP-62; [17]): > 50 µM | growth at 10 µM (A549): -5.88% | GI50 (PC-3): 0.554 µM | IC50 (PC-3): 0.55 µM | TGI (PC-3): 2.83 µM | CC50 (PC-3; [17]): > 50 µM | growth at 10 µM (HCT-15 [5]): 12.7% | growth at 10 µM (HOP-92): -34.3% | GI50 (SF-295): 0.691 µM | IC50 (SF-295): 0.69 µM | TGI (SF-295): 2.53 µM | CC50 (SF-295; [17]): > 50 µM | growth at 10 µM (MDA-MB-468): 2.14% | GI50 (HCT-116): 1.21 µM | TGI (HCT-116): > 50 µM | CC50 (HCT-116; [17]): > 50 µM | growth at 10 µM (HL-60(TB)): -18.1% | GI50 (MDA-MB-435 [6]): 0.938 µM | IC50 (MDA-MB-435 [6]): 0.94 µM | TGI (MDA-MB-435 [6]): 2.39 µM | CC50 (MDA-MB-435 [6]; [17]): > 50 µM | GI50 (Malme-3M): 0.926 µM | LC50 (concentration killing 50% of starting cells) (Malme-3M): > 50 µM | TGI (Malme-3M): 2.42 µM | growth at 10 µM (SW-620): 13.4% | GI50 (MOLT-4 [7]): 1.1 µM | TGI (MOLT-4 [7]): 4.48 µM | CC50 (MOLT-4 [7]; [17]): > 50 µM | growth at 10 µM (MDA-MB-435 [8]): -45.8% | GI50 (SN12C): 1.47 µM | TGI (SN12C): > 50 µM | CC50 (SN12C; [17]): > 50 µM | GI50 [9]: 0.99 µM | TGI [9]: 4.67 µM | CC50 [9, 17]: > 50 µM | GI50 [10]: 1.43 µM | TGI [10]: > 50 µM | CC50 [10, 17]: > 50 µM | GI50 (HCT-15 [11]): 1.23 µM | LC50 (HCT-15 [11]): > 50 µM | TGI (HCT-15 [11]): > 50 µM | growth at 10 µM [12]: 0.32% | GI50 (CAKI-1): 1.12 µM | TGI (CAKI-1): 3.7 µM | CC50 (CAKI-1; [17]): > 50 µM | growth at 10 µM (TK-10 [13]): 10.9% | growth at 10 µM (MDA-MB-231 [14]): -40.1% | GI50 (TK-10 [15]): 1.43 µM | TGI (TK-10 [15]): 40.9 µM | CC50 (TK-10 [15]; [17]): > 50 µM | GI50 (COLO 205): 0.937 µM | LC50 (concentration killing 50% of cells) (COLO 205): 3.14 µM | TGI (COLO 205): 1.72 µM | GI50 (T47D [16]): 1.42 µM | TGI (T47D [16]): > 50 µM | CC50 (T47D [16]; [17]): > 50 µM
